Assay: xn = mol fraction of the nth substance listed

CCCCN + ClC(Cl)Cl
viscosity [mPa·s], 101 kPa
Conditions | 293.15 K | 298.15 K | 303.15 K | 308.15 K
x1 = 0.0601 | 0.59 | 0.555 | 0.529 | 0.516
x1 = 0.1276 | 0.603 | 0.567 | 0.535 | 0.525
x1 = 0.1585 | 0.61 | 0.571 | – | 0.529
x1 = 0.2301 | 0.623 | 0.583 | 0.554 | 0.535
x1 = 0.2658 | 0.631 | 0.587 | 0.558 | 0.538
x1 = 0.336 | 0.641 | 0.598 | – | 0.541
x1 = 0.4049 | 0.647 | 0.6 | 0.567 | 0.543
x1 = 0.4341 | 0.649 | 0.599 | 0.568 | 0.541
x1 = 0.4542 | 0.649 | 0.6 | – | 0.54
x1 = 0.4991 | 0.645 | 0.598 | 0.561 | 0.536
x1 = 0.6045 | 0.63 | 0.585 | 0.548 | 0.524
x1 = 0.6156 | 0.627 | 0.58 | – | 0.52
x1 = 0.6443 | 0.621 | 0.573 | 0.54 | 0.516
x1 = 0.7093 | 0.604 | 0.559 | 0.526 | 0.503
x1 = 0.7325 | 0.596 | 0.552 | 0.52 | 0.496
x1 = 0.8611 | 0.556 | 0.514 | 0.487 | 0.46
x1 = 0.9302 | 0.532 | 0.492 | 0.463 | 0.437

CCCCCCCCCC(=O)OCC + CCCCCO
viscosity [mPa·s], 100 kPa
Conditions | x1 = 0.1005 | x1 = 0.201 | x1 = 0.3 | x1 = 0.4 | x1 = 0.498 | x1 = 0.5999 | x1 = 0.7009 | x1 = 0.7997 | x1 = 0.8996
293.15 K | 3.246 | 2.808 | 2.563 | 2.417 | 2.33 | 2.29 | 2.258 | 2.259 | 2.289
298.15 K | 2.839 | 2.481 | 2.277 | 2.156 | 2.086 | 2.052 | 2.031 | 2.036 | 2.061
303.15 K | 2.493 | 2.202 | 2.036 | 1.943 | 1.878 | 1.852 | 1.834 | 1.842 | 1.866
308.15 K | 2.218 | 1.965 | 1.827 | 1.744 | 1.698 | 1.683 | 1.668 | 1.676 | 1.702
313.15 K | 1.966 | 1.762 | 1.648 | 1.581 | 1.543 | 1.529 | 1.522 | 1.536 | 1.558
318.15 K | 1.823 | 1.586 | 1.492 | 1.438 | 1.408 | 1.396 | 1.396 | 1.408 | 1.432

CN + CS(C)=O
303.15 K, 101 kPa
Conditions | viscosity [mPa·s]
x2 = 0.0607 | 1.738
x2 = 0.12 | 1.823
x2 = 0.2348 | 1.891
x2 = 0.4501 | 2.172
x2 = 0.6481 | 2.077
x2 = 0.8308 | 1.895

O=[N+]([O-])[O-].[Ag+] + O
298.15 K, 101 kPa
Conditions | viscosity [mPa·s]
x1 = 0.02589 | 0.99
x1 = 0.05251 | 1.134
x1 = 0.09523 | 1.451
x1 = 0.1797 | 2.439

CCCC(=O)OCC + Clc1ccccc1
viscosity [mPa·s], 101.3 kPa
Conditions | 308.15 K | 318.15 K
x1 = 0.0537 | 0.646 | 0.596
x1 = 0.0994 | 0.637 | 0.588
x1 = 0.1869 | 0.622 | 0.574
x1 = 0.357 | 0.599 | 0.552
x1 = 0.4049 | 0.593 | 0.548
x1 = 0.4939 | 0.585 | 0.541
x1 = 0.5929 | 0.579 | 0.535
x1 = 0.6953 | 0.574 | 0.532
x1 = 0.7941 | 0.573 | 0.532
x1 = 0.9017 | 0.573 | 0.534
x1 = 0.9369 | 0.574 | 0.535

CC[N+](=O)[O-] + CC(C)(C)O
viscosity [mPa·s], 101.33 kPa
Conditions | 298.15 K | 303.15 K | 313.15 K
x2 = 0.0502 | 0.646 | 0.61 | 0.546
x2 = 0.1001 | 0.647 | 0.609 | 0.544
x2 = 0.1499 | 0.655 | 0.615 | 0.546
x2 = 0.2002 | 0.67 | 0.626 | 0.547
x2 = 0.2501 | 0.691 | 0.643 | 0.563
x2 = 0.3001 | 0.718 | 0.667 | 0.58
x2 = 0.35 | 0.753 | 0.694 | 0.597
x2 = 0.4 | 0.794 | 0.73 | 0.622
x2 = 0.4501 | 0.845 | 0.778 | 0.652
x2 = 0.5001 | 0.909 | 0.824 | 0.687
x2 = 0.55 | 0.988 | 0.886 | 0.728
x2 = 0.6 | 1.075 | 0.958 | 0.777
x2 = 0.6499 | 1.185 | 1.047 | 0.836
x2 = 0.6998 | 1.323 | 1.158 | 0.907
x2 = 0.7498 | 1.499 | 1.3 | 0.997
x2 = 0.7998 | 1.73 | 1.475 | 1.104
x2 = 0.8498 | 2.063 | 1.728 | 1.258
x2 = 0.8997 | 2.505 | 2.068 | 1.449
x2 = 0.95 | 3.231 | 2.574 | 1.718

CC(=O)[O-].[NH4+] + CC(=O)[O-].CC[n+]1ccn(C)c1
101 kPa
Conditions | viscosity [mPa·s]
298.15 K, x1 = 0.0503 | 152.5
303.15 K, x1 = 0.1703 | 185.5
